From patent US20240398781A1, “SPIROCYCLIC CYCLIC MODULATORS OF CHOLESTEROL BIOSYNTHESIS AND THEIR USE FOR PROMOTING REMYELINATION” (GENENTECH, INC., priority 2021, published 2024)
Like-named read-outs stand apart in the source and are kept apart here.

Assays:
[1] = biological target: human EBP (Homo sapiens (Human), UniProt Q15125); assay: Competition binding assay (SPA, [3H]-Ifenprodil) to determine compound affinity to EBP; settings: read-out: hEBP SPA Ki
Procedure, shortened: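 Membranes from HEK293 cells overexpressing human EBP, on SPA beads (0.3 mg beads, 5 µg membrane/well) in Tris/MgCl2/EDTA buffer pH 7.5 with 0.01% BSA and 0.1% DMSO, competed against [3H]-ifenprodil for 3 h to equilibrium. Compounds were tested at 1 µM single dose or 0.06 nM–5 µM; IC50 came from nonlinear fit, and Ki=IC50/(1+[L]/Kd).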

[2] = tested on: EpiSC-derived OPCs; assay: In vitro phenotypic screening of OPCs (MBP staining, high-content imaging); assay type: cell-based, mouse; settings: percentage of MBP+ oligodendrocytes, 3 days, 0.5 nM to 1000 nM, read-out: OPC EC50
Procedure, shortened: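 Readout: high-content imaging of MBP immunostaining around DAPI nuclei, giving percent oligodendrocytes, with EC50 from a Levenberg-Marquardt Hill fit. Epiblast stem cell-derived OPCs were plated on laminin at 150,000/cm^2 in growth-factor-free N2B27. They were exposed 3 days to an 8-point series, 0.5-1000 nM final, in two or more independent platings.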

[3] = [3H]-Ifenprodil 10 nM, HEK293 membrane overexpressing human EBP, Ki=IC50/(1+[L]/Kd)

Sequence of human EBP (Q15125 whole entry): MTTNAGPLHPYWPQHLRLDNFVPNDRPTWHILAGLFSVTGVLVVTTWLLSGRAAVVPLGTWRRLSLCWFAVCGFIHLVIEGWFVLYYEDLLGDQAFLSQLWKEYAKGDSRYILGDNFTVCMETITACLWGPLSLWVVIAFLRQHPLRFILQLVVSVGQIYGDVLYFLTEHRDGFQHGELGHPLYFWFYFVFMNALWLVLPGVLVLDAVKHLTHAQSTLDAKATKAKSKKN

Ki [1, 3]	EC50 ([2]; Mus musculus, 72 h)	Ki [1]	EC50 [2]	SMILES
37 nM	29 nM	–	–	CC(C)n1nc(-c2cncc(OC(F)F)c2)cc1[C@H]1CC[C@H](N2CCC3(C2)CS(=O)(=O)C3)CC1 [Compound 33A, 6-((1r,4r)-4-(3-(5-(Difluoromethoxy)pyridin-3-yl)-1-isopropyl-1H-pyrazol-5-yl)cyclohexyl)-2-thia-6-azaspiro[3.4]octane 2,2-dioxide]
20 nM	240 nM	–	–	Cn1nc(C(F)(F)F)cc1[C@H]1CC[C@@H](N2CCC3(C2)CS(=O)(=O)C3)CC1 [Compound 2A, 6-((1s,4s)-4-(1-methyl-3-(trifluoromethyl)-1H-pyrazol-5-yl)cyclohexyl)-2-thia-6-azaspiro[3.4]octane 2,2-dioxide]
–	280 nM	40 nM	–	O=S1(=O)CC2(CCN(C3CC[C@H](c4ccc(C(F)(F)F)nc4)C3)C2)C1 (single isomer, unassigned) [11D*]
170 nM	> 1000 nM	–	–	O=S1(=O)CC2(CCN([C@@H]3CCN(c4ccc(C(F)(F)F)nc4)C3)C2)C1 (single isomer, unassigned) [9B*]
34 nM	86 nM	–	–	O=S1(=O)CC2(CCN([C@H]3CCN(c4ccc(C(F)(F)F)nc4)C3)C2)C1 (single isomer, unassigned) [9A*]
54 nM	160 nM	–	–	O=S1(=O)CC2(CCN([C@H]3CC[C@@H](c4ccc(C(F)(F)F)nc4)C3)C2)C1 (single isomer, unassigned) [Compound 11A, (Cis)-6-(3-(6-(Trifluoromethyl)pyridin-3-yl)cyclopentyl)-2-thia-6-azaspiro[3.4]octane 2,2-dioxide]
40 nM	73 nM	–	–	CCn1nc(-c2ccc(C(F)(F)F)nc2)nc1[C@H]1CC[C@H](N2CCC3(C2)CS(=O)(=O)C3)CC1 [36A*, 6-((1r,4r)-4-(1-Ethyl-3-(6-(trifluoromethyl)pyridin-3-yl)-1H-1,2,4-triazol-5-yl)cyclohexyl)-2-thia-6-azaspiro[3.4]octane 2,2-dioxide]
21 nM	240 nM	–	–	CC(C)n1nc(C(F)(F)F)cc1[C@H]1CC[C@@H](N2CCC3(C2)CS(=O)(=O)C3)CC1 [Compound 8B, 6-((1s,4s)-4-(1-isopropyl-3-(trifluoromethyl)-1H-pyrazol-5-yl)cyclohexyl)-2-thia-6-azaspiro[3.4]octane 2,2-dioxide]
62 nM	30 nM	–	–	O=S1(=O)CC2(CCN([C@H]3CC[C@@H](c4ccc(C(F)(F)F)cc4)CC3)C2)C1 [Compound 3B, 6-((1s,4s)-4-(4-(trifluoromethyl)phenyl)cyclohexyl)-2-thia-6-azaspiro[3.4]octane 2,2-dioxide]
36 nM	41 nM	–	–	CCn1nc([C@H]2CC[C@H](N3CCC4(C3)CS(=O)(=O)C4)CC2)cc1C(F)(F)F [Compound 16, 6-((1r,4r)-4-(1-Ethyl-5-(trifluoromethyl)-1H-pyrazol-3-yl)cyclohexyl)-2-thia-6-azaspiro[3.4]octane 2,2-dioxide]

The remaining lines, values behind:

SMILES	Ki [1, 3]	EC50 ([2]; Mus musculus, 72 h)	Ki [1]	EC50 [2]
CC(C)n1nc(-c2ccc(C(F)(F)F)nc2)nc1[C@H]1CC[C@H](N2CCC3(C2)CS(=O)(=O)C3)C1 (single isomer, unassigned) [17B*]	31 nM	22 nM	–	–
CC(C)n1nc(-c2cncc(C(F)(F)F)c2)cc1[C@H]1CC[C@H](N2CCC3(C2)CS(=O)(=O)C3)C1 (single isomer, unassigned) [13D*]	71 nM	2.2 nM	–	–
Cn1nc(C(F)(F)F)cc1[C@H]1CC[C@H](N2CC[C@]3(CCS(=O)(=O)C3)C2)CC1 (single isomer, unassigned) [38C*]	29 nM	–	–	50 nM
CC(C)n1nc(C2CC2)nc1[C@@H]1CC[C@H](N2CCC3(C2)CS(=O)(=O)C3)C1 (single isomer, unassigned) [18A*]	310 nM	390 nM	–	–
CC(C)n1nc(N2CC(F)(F)C2)cc1[C@H]1CC[C@H](N2CCC3(C2)CS(=O)(=O)C3)CC1 [Compound 35, 6-((1r,4r)-4-(3-(3,3-Difluoroazetidin-1-yl)-1-isopropyl-1H-pyrazol-5-yl)cyclohexyl)-2-thia-6-azaspiro[3.4]octane 2,2-dioxide]	180 nM	210 nM	–	–
Cc1cc(C(F)(F)F)ncc1[C@H]1CC[C@H](N2CCC3(C2)CS(=O)(=O)C3)CC1 [Compound 21B, 6-((1r,4r)-4-(4-Methyl-6-(trifluoromethyl)pyridin-3-yl)cyclohexyl)-2-thia-6-azaspiro[3.4]octane 2,2-dioxide]	48 nM	120 nM	–	–
O=S1(=O)CC2(CCN([C@@H]3CO[C@@H](c4ccc(C(F)(F)F)cc4)C3)C2)C1 (stereo in doubt) [19B*, 6-((3S,5R)-5-(4-(trifluoromethyl)phenyl)tetrahydrofuran-3-yl)-2-thia-6-azaspiro[3.4]octane 2,2-dioxide]	27 nM	49 nM	–	–
CC(C)n1nc(-c2ccc(C(F)(F)F)nc2)nc1[C@H]1CC[C@@H](N2CCC3(C2)CS(=O)(=O)C3)C1 (single isomer, unassigned) [17D*]	20 nM	14 nM	–	–
O=S1(=O)CC2(CCN([C@H]3CC[C@H](c4cc(C(F)(F)F)n(C5CCC5)n4)CC3)C2)C1 [Compound 24, 6-((1r,4r)-4-(1-cyclobutyl-5-(trifluoromethyl)-1H-pyrazol-3-yl)cyclohexyl)-2-thia-6-azaspiro[3.4]octane 2,2-dioxide]	28 nM	6 nM	–	–
